Usually viability stands for a read-out of living cells in per cent, often relative to untreated cells.

SMILES strings stand for the structures.

Data on four molecules can be found in article PMC10726367 (Journal of Medicinal Chemistry, 2023).

In series [1] the target is T1, SERCA2a (Mus musculus, UniProt O55143).
T1 construct: host or cells: HL-1 cells
In words: Caffeine-induced Ca2+ release assay in HL-1 cells (FLIPR Calcium 6). Particulars: HL-1 cells, 2 h incubation at various concentrations, 10 mM caffeine. It counts as cell-based. From the text: It is known that caffeine stimulates the release of calcium from intracellular stores in cells by acting as a RyR activator.[39],[40] The binding site for caffeine is located on the cytosolic side of the protein between the C-terminal and the S2S3 domain.[41] When caffeine binds to RyR2, it interacts with specific amino acids on the protein, which causes conformational changes in the protein’s structure.[42] This opens the RyR2 channel pore, enabling the mass release of calcium ions from the SR. We investigated the effect of caffeine-induced Ca^2+ release in HL-1 cells treated with cytosolic Ca^2+ indicator FLIPR Calcium 6 (Molecular Devices). The HL-1 cell line is an immortalized mouse cardiomyocyte cell line commonly used to study the effects of various substances on cell function.[43] If the tested compound modulates SERCA2a activation, it will cause an increase in Ca^2+ concentration in the SR and the effect of a fixed dose of caffeine on SR Ca^2+ release will be potentiated by increasing doses of a proposed SERCA activator.[26] As a positive control, we used CDN1163, a small-molecule SERCA activator, which is at present in a clinical trial due to its potential therapeutic use for certain cardiac conditions.[27]
HL-1 cells (50,000 per well) were cultivated for 24 h in black-walled, clear-bottom 96-well microplates (Corning, Amsterdam, The Netherlands) covered with fibronectin/gelatin (Merck KGaA, Darmstadt, Germany) in a humidified incubator at 37 °C and 5% CO2.
Changes in Ca^2+ concentration were measured on a multiwell plate reader TECAN Spark 20 M using a FLIPR 6 Calcium Assay Kit from Molecular Devices (Molecular Devices LLC, München, Germany) at 37 °C. The 1000 × stock solutions of the test compounds were prepared in DMSO. A 100 μL solution of test compound in Tyrode’s solution containing FLIPR Calcium 6 dye was incubated for 2 h at 37 °C and 5% CO2 in a humidified incubator. The time courses were recorded in each well. Fluorescence was evoked at 485 nm excitation wavelength and read out in a bottom-read mode at 525 nm. Data were recorded every 2 s, exposure −20 flashes, excitation bandwidth −10 nm, emission bandwidth −15 nm. To initiate Ca^2+ influx, 25 μL of 50 mM caffeine solution in Tyrode’s solution containing 2 mM CaCl2 was injected in each well (speed 100 μL/s) at the 10 s time point, resulting in 10 mM final concentration in the well. The differences between the caffeine-induced peak minus basal fluorescence, ΔFCaff, were taken into account for the analysis. The Tyrode’s solution +0.1 v/v% DMSO was used as a control. The dose–response curves were calculated using the software package GraphPad Prism version 8.3.1. All data are presented as mean ± SD from eight independent experiments. Y = bottom + (top – bottom)/(1 + 10^((LogEC50 – X) × HillSlope)) was used, where HillSlope describes the steepness of the curve and top and bottom are plateaus in the units of the Y axis.

A short description of series [2]: CytoTox-Glo Cytotoxicity Assay. It is filed as cell-based. Particulars: mouse; HL-1 cells, 100 μM solutions, 24 h incubation. The procedure:
Cell viability was assessed using the CytoTox-Glo Cytotoxicity Assay according to the manufacturing procedure (Promega GmbH). Briefly, HL-1 cells were cultivated for 24 h in black-walled, clear-bottom 96-well microplates (Corning) covered with fibronectin in DMEM, containing different concentrations of the tested compound (10,000 cells/well). Luminescence of a luminogenic peptide substrate was measured before and after the addition of the lysis reagent (digitonin). The viable cell contribution was determined by a subtractive method. 0.1% DMSO-treated cells were taken as a control.

Series [3] in a line: Membrane permeability, PermeaPad Plate (cell-free transport model). It is filed as in vitro ADME. The settings on record: for Pe: 24 h, room temperature; for Pe class (low/medium/high; poor): class word printed beside Pe, no key given. As to the method:
Membrane permeability was assessed using PermeaPad Plate according to the manufacturing procedure (innoME GmbH, Espelkamp, Germany). Briefly, 200 μL of water was added into the acceptor plate. 200 μL of 100–500 μM test compound in water was added directly to the well membranes of the donor plate. The donor plate contains a biomimetic membrane for simulating passive mass transfer through different barriers in the body. Then, the donor plate was placed into the acceptor plate wells and incubated at room temperature for 24 h in the dark. To determine the peak absorbance of test compounds, absorbance spectra of acceptor solutions and initial solutions for each test compound were read out. The permeability rate (Pe) was calculated using the formula:
[drawing 1] , where ODA is the absorbance of acceptor solution and ODE is the absorbance of the standard solution; if the compound is able to permeabilize the membrane and fully reach equilibrium, 250 μM will be the final concentration of solution in the donor and acceptor wells. The coefficient C was calculated using the formula:
[drawing 2] , where VA is the acceptor volume (cm^3), VD is the donor volume (cm^3), the membrane area is 0.24 cm^2, and the time is 86,400 s.

Series [4] addresses T2, RyR2 (Mus musculus, UniProt E9Q401).
T2 construct: expressed in transfected cells; host or cells: HEK-293 cells stably expressing R-CEPIA1er with doxycycline-inducible WT RyR2
In words: Time-lapse [Ca2+]ER assay (RyR2 R-CEPIA1er assay) in HEK-293 cells with inducible WT RyR2. It counts as cell-based. The settings on record: for effect on [Ca2+]ER / R-CEPIA1er fluorescence (F/F0): 25 μM, vs 0.1 v/v% DMSO. From the text:
To assess the functional potency of novel agents for modulating RyR2 channel activity, we measured changes in Ca^2+ levels in ER of HEK-293 cells with inducible expression of wild-type RyR2 (WT RyR2).[33],[34] Because the expression of WT RyR2 introduces an additional spontaneous Ca^2+ leak from the ER, these cells are suitable for our purpose of testing potential RyR2 stabilizers.[35] The cells additionally stably express the Ca^2+ fluorescence indicator R-CEPIA1er, which is a genetically encoded sensor protein of Ca^2+ in the ER (the cell line was a gift from T. Murayama, Department of Pharmacology, Juntendo University School of Medicine, Tokyo, Japan).[36]
The addition of these compounds, which are known to inhibit excessive cardiac RyR2 activity, should reduce Ca^2+ leak from the ER, thus increasing the R-CEPIA1er fluorescence.
The fluorescence plate reader [Ca^2+]ER assay was performed according to the slightly modified protocol of Murayama and Kurebayashi.[36] […] After the cells were inducted with doxycycline for 24 h, changes in ER calcium concentrations [Ca^2+]ER were measured on a multiwell plate reader TECAN Spark 20 M at 37 °C. The 1000 × stock solutions of the test compounds were prepared in DMSO. Briefly, the culture medium was removed and 100 μL of Tyrode’s solution containing 2 mM CaCl2 was added to the cells. The time courses were recorded in each well. Fluorescence was evoked by a 560 nm excitation wavelength and collected in a bottom-read mode at 610 nm. Data was recorded every 10 s, exposure −20 flashes, excitation bandwidth −20 nm, emission bandwidth −20 nm. 100 μL of 0–100 μM solution of test compound in Tyrode’s solution containing 2 mM CaCl2 was injected in each well (speed 100 μL/s) at the 90 s time point. […] The 0.1 v/v% DMSO and 2 mM CaCl2 Tyrode’s solution was used as a control.
The dose–response curves were calculated using the software package GraphPad Prism version 8.3.1. (GraphPad Software, Inc.). All data are presented as mean ± SD in three independent experiments. Y = bottom + (top – bottom)/(1 + 10^((LogEC50 – X) × HillSlope)) was used, where HillSlope describes the steepness of the curve, and top and bottom are plateaus in the units of the Y-axis.

T1 sequence (O55143 1-998 isoform O55143-2): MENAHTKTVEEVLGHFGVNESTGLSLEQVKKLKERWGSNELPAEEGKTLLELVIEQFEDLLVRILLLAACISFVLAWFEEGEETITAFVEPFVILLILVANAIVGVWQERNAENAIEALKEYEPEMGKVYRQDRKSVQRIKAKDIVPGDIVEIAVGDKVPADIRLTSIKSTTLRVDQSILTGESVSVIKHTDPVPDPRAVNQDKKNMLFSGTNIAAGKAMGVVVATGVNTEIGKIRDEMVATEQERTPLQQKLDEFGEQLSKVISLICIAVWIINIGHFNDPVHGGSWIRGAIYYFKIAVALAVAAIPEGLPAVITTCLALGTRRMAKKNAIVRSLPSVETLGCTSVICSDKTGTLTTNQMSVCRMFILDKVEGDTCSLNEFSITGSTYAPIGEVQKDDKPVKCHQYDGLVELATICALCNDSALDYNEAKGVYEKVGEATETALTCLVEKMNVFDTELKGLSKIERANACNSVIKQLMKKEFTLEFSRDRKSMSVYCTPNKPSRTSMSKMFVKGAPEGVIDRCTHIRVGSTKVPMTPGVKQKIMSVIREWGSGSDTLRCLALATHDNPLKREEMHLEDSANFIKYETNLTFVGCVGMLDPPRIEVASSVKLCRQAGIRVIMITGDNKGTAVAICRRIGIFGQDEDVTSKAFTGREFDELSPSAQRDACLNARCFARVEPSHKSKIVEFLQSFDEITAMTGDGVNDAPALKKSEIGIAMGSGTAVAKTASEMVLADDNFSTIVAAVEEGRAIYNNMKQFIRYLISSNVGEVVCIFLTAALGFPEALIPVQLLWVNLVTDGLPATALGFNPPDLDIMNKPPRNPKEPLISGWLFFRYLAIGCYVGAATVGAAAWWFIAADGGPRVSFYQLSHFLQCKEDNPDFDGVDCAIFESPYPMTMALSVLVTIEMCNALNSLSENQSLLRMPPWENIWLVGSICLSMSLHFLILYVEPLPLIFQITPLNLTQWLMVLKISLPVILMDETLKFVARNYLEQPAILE

With `Cc1ccc2cccc(NC(=O)c3ccc(OC(C)C)cc3)c2n1` [CDN1163, reference compound], in series [1], the “effect on caffeine-induced Ca2+ release (in words)” value (“effect … (in words)” below) is “clear dependence of the magnitude of the caffeine effect from the concentration of CDN1163”.
As to `COc1ccc2c(c1)CN(C)CCS2` [S107, 4-methyl-7-methoxy-2,3,4,5-tetrahydro-1,4-benzothiazepine, reference compound], in series [1], the “effect … (in words)” value is listed as “did not show any effects on SR Ca^2+ content”. In series [2], this molecule showed a viability at 24 h, 100 μM of 98%. In series [3], the Pe is on record as 1.2 10^–6 cm/s and the “Pe class (low/medium/high; poor)” value was “medium”.
With `COc1ccc2c(c1)CN(C(=O)C(=O)O)CCS2` [S36, reference compound], in series [4] (25 μM (S107 1 mM per Figure 2), HEK-293 RyR2 R-CEPIA1er cells), the RyR2 effect class entry is reported as “+++”. The “effect on [Ca2+]ER / R-CEPIA1er fluorescence (F/F0)” value in series [4] is “increase in R-CEPIA1er fluorescence”. Further, the “effect … (in words)” value in series [1] is “no concentration-dependent effect”. In series [2], this molecule showed a viability at 24 h, 100 μM of 94%. Moreover, in series [3], the Pe is reported as 1.0 10^–6 cm/s; the “Pe class (low/medium/high; poor)” value was “poor permeability and low”.
`O=C1CN(/N=C/c2ccc(-c3ccc([N+](=O)[O-])cc3)o2)C(=O)N1` [dantrolene, reference compound]: the “effect on [Ca2+]ER / R-CEPIA1er fluorescence (F/F0)” value in series [4] is “increase in R-CEPIA1er fluorescence”.
